Measured values reported in patent publication US11285172B2, “Method for treating inflammatory diseases” (MacKay Memorial Hospital, priority 2019, dated 2022).
Structures can show the parent of a compound that is named as a salt.

Tested on: FANCs internalization in HAECs
Assay: Endocytic pathway inhibition: FANC internalization in HAECs after endocytosis inhibitor pre-treatment (flow cytometry, confocal)
Assay type: cell-based, human
Conditions: for effect on FANCs internalization: complete medium, inhibitor pre-treatment 45 min (filipin 30 min); for effect on FANCs internalization / decrement of FANCs internalization compared to FANCs control: then FANCs 80 min; for decrement of FANCs internalization compared to FANCs control: 45 min inhibitor pre-treatment
Description: In certain experiments, HAECs were treated by endocytosis inhibitors to inhibit endocytic pathways. Endocytosis inhibitors are chlorpromazine hydrochloride (10 μg/ml, C8138), filipin (10 μg/ml, F9765), amiloride (10 μmol/L A7410), and genistein (50 μmol/L G6649; all obtained from Sigma-Aldrich).
Cells were seeded onto 2% gelatin-coated glass coverslips and incubated for 24 hours and applied to FANCs treatments. Cells were fixed with 1% paraformaldehyde, washed with PBS, then blocked with 5% bovine serum albumin (BSA) for 30 minutes. Then the cell culture was incubated with primary antibodies against VE-cadherin at 37° C. for 2 hours, followed by application of FITC-conjugated secondary antibody (Chemicon, Temecula, Calif., USA) for 50 minutes under room temperature. After one hour for the pre-treatment by above-mentioned endocytosis inhibitor, HAECs were incubated with FANCs for 80 minutes followed by washed with PBS and fixed with 1% paraformaldehyde. Afterwards, cells were stained with bisbenzamide (18.7 μmol/L) for 15 minutes and then washed with PBS buffer. Then, the cells were mounted by using 60% glycerol (v/v) and examined by using a confocal microscope (Leica TCS SP5, Leica, Germany) with a 40× oil objective/1.25 aperture. The images were captured under room temperature.
After 45 minutes of inhibitors pre-treatment (except 30 minutes of filipin treatment), FANCs were added and the incubation continued for additional 80 minutes. Thereafter, cells were subject to flow cytometry (FIGS. 1A-1D). […] However, in low serum or no serum medium, internalization of FANCs was blocked by chlorpromazine hydrochloride (compared to FANCs control, 60% of decrement at 1% FBS medium and 51% of decrement at no serum medium; FIGS. 1B and 1C).

Compound: N=C(N)NC(=O)c1nc(Cl)c(N)nc1N [amiloride]
- effect on FANCs internalization (flow cytometry): slighter effects

Compound: CN(C)CCCN1c2ccccc2Sc2ccc(Cl)cc21 [chlorpromazine hydrochloride]
- decrement of FANCs internalization compared to FANCs control (1% FBS medium, flow cytometry, HAECs): 60%
- effect on FANCs internalization (flow cytometry): slighter effects
- punctate fluorescence signals of FANCs (confocal microscopy) (confocal microscopy, HAECs, FANCs 80 min after inhibitor pre-treatment): down-regulated
- decrement of FANCs internalization compared to FANCs control (no serum medium, flow cytometry, HAECs): 51%
- FANC internalization, dose dependence (only in low serum and no serum supplement culture environments, flow cytometry): attenuated FANC internalization in a dose-dependent manner

Compound: CCCCC[C@@H](O)[C@H]1C(=O)O[C@H](C)[C@@H](O)/C=C/C=C/C=C/C=C/C=C(\C)[C@@H](O)C[C@H](O)C[C@H](O)C[C@H](O)C[C@H](O)C[C@H](O)C[C@@H]1O [filipin]
- effect on FANCs internalization (flow cytometry): slighter effects

Compound: O=c1c(-c2ccc(O)cc2)coc2cc(O)cc(O)c12 [genistein]
- effect on FANCs internalization (flow cytometry): slighter effects
